In test [1] the test system is p53. The following applies: CRM1 inhibition, other cancers, literature; cited from earlier work.
Test [2] relates to C33A. Description: MTT cell viability / cisplatin IC50 determination. The format is cell-based. The following applies: 48-h treatment, no INI-43 pre-treatment. The protocol: (§1) HeLa, SiHa, CaSki and C33A cell lines were purchased from the American Type Culture Collection (ATCC) and maintained in Dulbecco's Modified Eagle's Medium (DMEM, Gibco, Life Technologies) containing 10% Fetal Bovine Serum (Gibco, Life Technologies), supplemented with 100 U/mL penicillin and 100 μg/mL streptomycin. Cells were cultured at 37° C. in a humidified chamber with 5% CO2. All cell lines were authenticated by DNA profiling using the Cell ID System (Promega, Madison, WI, USA).
(§2) Cells were plated in 96-well plates and subjected to single or CT (2 h INI-43 pre-treatment followed by cisplatin treatment, without removing IN1-43 from the media) for 48 h. Following treatment, MTT (Sigma) was added and 4 h later crystals solubilized using 10% SLS in 0.01 M HCl. Absorbencies were measured at 595 nm and IC50 values determined via plotting [Fa/(1-Fa)] in log scale against log cisplatin concentration, where:
(§3) The half inhibitory concentration was calculated using the formula IC50=10^x-intercept

The test system of test [3] is CaSki. Kind of test: MTT cell viability / cisplatin IC50 determination. In kind it is cell-based. The settings on record: 48-h treatment, no INI-43 pre-treatment. The protocol:
as §1, §2, §3

The test system of test [4] is HeLa. Description: MTT cell viability / cisplatin IC50 determination. In kind it is cell-based. The protocol: as §1, §2, §3
Test [5] concerns SiHa. Description: MTT cell viability / cisplatin IC50 determination. In kind it is cell-based. As for the experimental part:
as §1, §2, §3

For test [6], the system named is p53 reporter activity in SiHa cells. Kind of test: p53-luciferase reporter assay. In kind it is cell-based. The settings on record: single cisplatin treatment. The protocol: (§4) SiHa cells were transfected with 100 ng p65-luciferase reporter construct (containing five copies of the p65-binding site, Promega) or 200 ng p53-luciferase reporter construct (containing thirteen wildtype p53 binding sites, Addgene plasmid #16442, Addgene Plasmid Repository (el-Deiry W S, Tokino T, Velculescu V E, Levy D B, Parsons R, Trent J M, et al. WAF1, a potential mediator of p53 tumor suppression. Cell. 1993; 75(4):817-25) and 10 ng pRL-TK (encoding Renilla luciferase, Promega), using Genecellin transfection reagent (Celtic Molecular Diagnostics). The following day cells were treated with 5 μM INI-43 for 2 h, followed by 30 μM cisplatin for 24 h, and luciferase activity assayed using the Dual-Luciferase Report assay system (Promega), according to the manufacturer's instructions. Luciferase readings were measured using the Veritas™ microplate luminometer (Promega) and normalised to Renilla luciferase from the same extract.
(In general: In a reporter assay the amount or activity of a reporter protein is the signal.)

Test [7] relates to p65 reporter activity in SiHa cells. Description: p65-luciferase reporter assay. The settings on record: 30 μM single cisplatin treatment. In kind it is cell-based. As for the experimental part:
as §4

Test [8] concerns NFκB-p50 and NFκB-p65 in SiHa cells. Kind of test: Immunofluorescence of NFκB nuclear localization. In kind it is cell-based. The protocol: SiHa cells were plated on glass coverslips and treated for 24 h before fixation with 4% paraformaldehyde. Cells were permeabilised using 0.5% Triton-X-100/PBS and blocked using 1% BSA/PBST with 0.3 M Glycine. Primary antibody incubations were performed in 1% BSA/PBST, followed by secondary antibody incubation (Cy3 conjugated goat anti-rabbit, Jackson ImmunoResearch). Cell nuclei were counterstained with 0.5 μg/mL DAPI, and images captured using the Zeiss inverted fluorescence microscope under 100× oil immersion.

The test system is the same in test [9]. Kind of test: Nuclear/cytoplasmic fractionation and Western blot. The format is cell-based. The settings on record: cisplatin treatment. The protocol:
For protein extraction, cells were washed with PBS and lysed using RIPA buffer (50 mM Tris-CI, pH 7.4, 150 mM NaCl, 1% (w/v) sodium deoxycholate, 0.1% (v/v) SDS, 1% (v/v) Triton X-100, 2 mM EGTA, 2 mM EDTA, 50 mM NaF, 5 mM Na2P2O7, 1× complete protease inhibitor cocktail (Roche) and 0.1 M Sodium Orthovanadate). For PARP cleavage analysis, dead cells were collected by centrifugation and combined with live cell lysates. Lysates were sonicated, centrifuged, and the supernatant quantified using the BCA Protein Assay Kit (Pierce, Thermo Scientific) according to the manufacturer's instructions. […]
For nuclear/cytoplasmic protein extraction, cells were collected by trypsinization. […] The fractions were quantified using the BCA Protein Assay Kit (Pierce, Thermo Scientific) according to the manufacturer's instructions, followed by western blot analysis.
Background: A western blot detects proteins with antibodies after separation by electrophoresis.

Test [10] has as its system p53, p21 and Mcl-1 in SiHa cells. Kind of test: Western blot of p53 and p53 targets. In kind it is cell-based. The protocol:
(§5) For protein extraction, cells were washed with PBS and lysed using RIPA buffer (50 mM Tris-CI, pH 7.4, 150 mM NaCl, 1% (w/v) sodium deoxycholate, 0.1% (v/v) SDS, 1% (v/v) Triton X-100, 2 mM EGTA, 2 mM EDTA, 50 mM NaF, 5 mM Na2P2O7, 1× complete protease inhibitor cocktail (Roche) and 0.1 M Sodium Orthovanadate). For PARP cleavage analysis, dead cells were collected by centrifugation and combined with live cell lysates. Lysates were sonicated, centrifuged, and the supernatant quantified using the BCA Protein Assay Kit (Pierce, Thermo Scientific) according to the manufacturer's instructions. Proteins were subjected to Western blot analysis using the following antibodies: rabbit anti-Kpnβ1 (H-300, sc-11,367, Santa Cruz), rabbit anti-β-tubulin (H-235, sc-9104, Santa Cruz), rabbit anti-PARP1/2 antibody (H-250, sc-7150, Santa Cruz), mouse anti-GAPDH (0411, sc-47,724, Santa Cruz), rabbit anti-p21 (H-164, sc-756, Santa Cruz), rabbit anti-Mcl-1 (H-260, sc-20,679, Santa Cruz), mouse anti-cyclin D1 (HD11, sc-246, Santa Cruz), rabbit anti-c-Myc (N-262, sc-764, Santa Cruz), mouse anti-p53 (DO-7, M7001, DakoCytomation), mouse anti-XIAP (610,763, BD Biosciences), and rabbit anti-phospho-Histone H2AX (γH2AX, Ser139, 20E3, #9718, Cell Signal).

The subject of test [11] is cyclin D1, c-Myc and XIAP. Kind of test: Western blot of NFκB targets. The format is cell-based. The settings on record: single cisplatin treatment. As for the experimental part: as §5
Where [12] appears, read: 48-h treatment, no INI-43 pre-treatment.
The mark [13] stands for this setting: Kpnβ1 knock-down (si-Kpnβ1) cells.
The mark [14] stands for this setting: control siRNA (si-ctrl) transfected cells.
Setting [15] is: single cisplatin treatment at 30 μM and 60 μM.

Structures are written as SMILES.

The IC50 is the concentration that inhibits the measured activity by half.

Regarding `COc1cc(-c2ncn(/C=C\C(=O)OC(C)C)n2)cc(C(F)(F)F)c1` [KPT-185], the “effect on p53 stability” value in test [1] was “stabilize p53”.

Take `N.N.[Cl][Pt][Cl]` [cisplatin, reference compound]: the IC50 in test [2] is 12.8 µM; in test [3] it was 18.1 µM; in test [4] (setting [12]), 18 µM; in test [4] (setting [13]) it was 9.7 µM; in test [4] (setting [14]), 24.4 µM; in [5] (setting [12]), 30.8 µM. In addition, the figures for the IC50 in test [5] (setting [13]) and in [5] (setting [14]) were 19.3 µM and 30.5 µM, respectively. Besides, the p53 reporter activity entry in test [6] was “significantly reduced”. For the same molecule, the p65 reporter activity entry in [7] is “induced”. For the same molecule, the “nuclear fluorescence relative to cytoplasmic fluorescence (Fc (Nu/Cy))” value in test [8] (single cisplatin treatment) is “significant increase”. Moreover, in test [8] (single cisplatin treatment (30 μM), 24 h), the “nuclear localization of NFκB-p50 and NFκB-p65” value was “stimulated nuclear localization”. Also, in test [9], the “levels of NFκB-p50 and NFκB-p65 in the nucleus” value is given as “increased levels”. Moreover, the p53 protein levels entry in [10] (SiHa, single cisplatin treatment) is “increased”. Moreover, in test [10] (setting [15]), the Mcl-1 levels result is “decreased”. The p21 levels result in test [10] (setting [15]) is listed as “decreased”. In addition, the “levels of cyclin D1 and c-Myc” value in [11] is listed as “elevated levels”.

`CCC(=C/[C@H](C)C/C=C/C(C)=C/[C@@H](C)C(=O)[C@@H](C)[C@H](O)[C@@H](C)C/C(C)=C/C(=O)O)/C=C/[C@@H]1OC(=O)C=C[C@@H]1C` [leptomycin B]: the “effect on p53 stability” value in [1] is reported as “stabilize p53”.

These data come from US20240342168A1, “SMALL MOLECULE INHIBITORS FOR ANTI-CANCER COMBINATION THERAPY” (UNIVERSITY OF CAPE TOWN, priority 2021, published 2024).
